Where “and” joins values, the source holds several entries; their conditions need not be identical. Identical values can stand only once. Entries after “also recorded” stand apart in the source; their conditions may differ.
Key:
[1] = test system: Bacteriodes vulgatus; assay: Short exposure of test microorganism to antibiotic; type: cell-based
Description: (§1) Appropriate test microorganisms were incubated with the antibiotic for varying periods of time and at 4° C. or 37° C. “Untreated” controls were incubated with HBSS. After completion of the treatment, the samples were assayed for bioburden by the membrane filtration method on Tryptic Soy agar containing 5% sheep blood (TSA-SB) and Sabouraud's dextrose medium (SAB).
Anaerobes are the predominant microorganisms in the colon. […] Lincomycin (Lincocin hydrochloride) (Sigma-Aldrich Co.) and Primaxin® were then tested against this anaerobe.

[2] = test system: Enterococcus faecalis; assay: Short exposure of test microorganism to antibiotic; type: cell-based; conditions: 12.5 to 50 μg/mL, one hour at 37° C.
Description: as §1
(§2) Two members of the quinolone class of antibiotics norfloxacin (Noroxin® (Merck & Co., Inc.)) and levofloxacin (Levaquin® (Ortho-McNeil)) also were evaluated. In preliminary experiments, norfloxacin was tested against Enterococcus faecalis and Pseudomonas aeruginosa.

[3] = test system: Pseudomonas aeruginosa; assay: Short exposure of test microorganism to antibiotic; type: cell-based; conditions: 12.5 to 50 μg/mL, one hour at 37° C.
Description: as §1, §2

[4] = test system: Candida albicans; assay: Short exposure of test microorganism to anti-mycotic; type: cell-based
Description: as §1
Amphotericin B was selected for action on yeasts and mold.

[5] = test system: bioburden of colon tumors; assay: Disinfection of trimmed colon tumor pieces before dissociation: bioburden of tumor cell suspension; type: cell-based; conditions: for effect of disinfectant on bioburden (in words): treatment of trimmed tumor pieces, concentrations tested; for Bioburden SAB-CM Aerobic / Bioburden TSA-SB Aerobic / Bioburden TSA-SB Anaerobic: per patient tumor sample
Text: (§3) For pathological staging purposes, the pathologist cuts the tumor to determine the deepest margin of penetration. Consequently, the excised tumors are comprised of several pieces of tumor tissue. The tissue was dissected to remove extraneous non-tumor and necrotic tissue. The trimmed tumor pieces were further subdivided to achieve homogeneity and divided into two to four groups for processing according to the experimental design. The tissue was divided as evenly as possible among the samples, taking care to make the tumor pieces in the experimental groups appear as identical as possible. The trimmed pieces were added to a tube containing 40 mL of disinfectant and then treated by shaking for 2 minutes at 200 rpm on a rotating platform shaker. The trimmed tumor pieces were then washed three times with HBSS and then dissociated. The amount of tumor dissociated was determined by weighing the tumor fragments prior to dissociation and after completion of the dissociation cycles. After dissociation, the tumor cell suspension was sampled for percent tumor cell viability, number of viable tumor cells, tumor cell potency and bioburden. The yield was defined as the number of viable tumor cells obtained per gram of tumor that was actually dissociated. The bioburden was normalized to CFU/10^7 viable tumor cells, approximately one dose of product.
(§4) Tumor sample 500-0051-KNO was washed with saline, a second wash with 1% Triton X-100 and followed by three additional saline washes (see Example 1). The resultant bioburden was below the limit of detection of the assay. In order to evaluate the ability of a disinfectant to remove bioburden, one to two logs of bioburden must be detectable in the control sample. In order to maximize the possible bioburden in the tumors and present a greater challenge to the disinfectant, the following modifications to the procedure were made: the tumors were minimally washed (one 500 mL quantity) prior to pathological dissection; the dissociations were performed in the absence of gentamicin.

[6] = test system: colon tumor cells; assay: Disinfection of trimmed colon tumor pieces before dissociation: tumor cell viability, yield, potency; type: cell-based, human; conditions: treatment of trimmed tumor pieces, relative to control
Text: as §3, with “The trimmed tumor pieces were then washed three times with HBSS and then dissociated.” left out, “After dissociation, the tumor cell suspension was sampled for percent tumor cell viability, number of viable tumor cells, tumor cell potency and bioburden. The yield was defined as the number of viable tumor cells obtained per gram of tumor that was actually dissociated. The bioburden was normalized to CFU/10^7 viable tumor cells, approximately one dose of product.” left out
Tumor sample 500-0051-KNO was washed with saline, a second wash with 1% Triton X-100 and followed by three additional saline washes (see Example 1). […] In order to maximize the possible bioburden in the tumors and present a greater challenge to the disinfectant, the following modifications to the procedure were made: the tumors were minimally washed (one 500 mL quantity) prior to pathological dissection; the dissociations were performed in the absence of gentamicin.

[7] = test system: endogenous bioburden present in colon tumors; assay: Additional one hour incubation with antibiotics after enzymatic dissociation: bioburden; type: cell-based; conditions: additional incubation vs no incubation; per tumor
Description: as §1
For the first four tumors processed, a portion of the cell suspension dissociated in the presence of gentamicin or gentamicin with other antibiotics was also incubated for an additional hour (after completion of the dissociation) with the same antibiotic(s). This additional incubation was evaluated for increased reduction of bioburden.

[8] = test system: microbial growth; assay: Disinfection of trimmed colon tumor pieces before dissociation: sterility in TSB and FTG broth; type: cell-based; design: key: Pass (P) (no evidence of microbial growth); Fail (F) (Microbial growth); conditions: per patient tumor sample
Text: as §3, §4

[9] = 0.4% Clorpactin, 2 successive 2 min treatments
[10] = 0.4% Clorpactin, one 2 min treatment

Cc1ncc([N+](=O)[O-])n1CCO [Flagyl]
effectiveness against the anaerobe (in words) ([1]; 2.5 and 5 μg/mL, aerobic incubation conditions): ineffectual

CCn1cc(C(=O)O)c(=O)c2cc(F)c(N3CCNCC3)cc21 [Norfloxacin, norfloxacin]
effectiveness (in words) [2]: ineffectual | effectiveness (in words) [3]: highly effective

C[C@@H]1[C@H](O)[C@@H](C)/C=C/C=C/C=C/C=C/C=C/C=C/C=C/[C@H](O[C@@H]2O[C@H](C)[C@@H](O)[C@H](N)[C@@H]2O)C[C@@H]2O[C@](O)(C[C@@H](O)C[C@@H](O)[C@H](O)CC[C@@H](O)C[C@@H](O)CC(=O)O[C@H]1C)C[C@H](O)[C@H]2C(=O)O [amphotericin B]
reduction in colonies (in words) ([4]; 0.5 to 1.0 μg/mL, observed one day after treatment): Marked reduction in colonies | inhibition (in words) ([4]; observed after 8 days in culture, higher concentration): only slight inhibition

CCC[C@@H]1C[C@@H](C(=O)N[C@@H]([C@H]2O[C@H](SC)[C@H](O)[C@@H](O)[C@H]2O)[C@@H](C)O)N(C)C1 [lincomycin, Lincomycin]
reduction of the anaerobe ([1]; extended conditions: 40 minutes at 37° C., 4° C. for 60 minutes, additional 60 minutes at 37° C.): one log reduction | reduction of the anaerobe ([1]; overnight at 4° C., Primaxin 100 μg/mL, lincomycin up to 150 μg/mL): no effect

OCl [sodium hypochlorite]
effect of disinfectant on bioburden (in words) [5]: effective in reducing the bioburden | effect of disinfectant on tumor cell yield (in words) [6]: significantly reduced the tumor cell yield relative to the control

gentamicin
Percent Reduction of Bioburden, SAB medium [7]: 80% | Percent Reduction of Bioburden, TSA medium [7]: 41%

sodium oxychlorosene [Clorpactin ®]
Bioburden SAB-CM Aerobic [5, 9]: ≦2 CFU/107 Cells | Bioburden TSA-SB Aerobic [5, 9]: ≦2 CFU/107 Cells | Bioburden TSA-SB Anaerobic [5, 9]: 3800 CFU/107 Cells and ≦2 CFU/107 Cells | % Reduction of bioburden TSA-SB Aerobic ([5]; 0.4% Clorpactin, 2 successive 2 min treatments, vs control of same tumor): (99%) | two successive two minute treatments versus single treatment (in words) ([5]; 0.4% Clorpactin, fresh disinfectant each time): No advantage for two treatments was observed | Bioburden SAB-CM Aerobic [5, 10]: 207 CFU/107 Cells and ≦11 CFU/107 Cells and ≦23 CFU/107 Cells and ≦2 CFU/107 Cells (2×) and <49 CFU/107 Cells | Bioburden TSA-SB Aerobic [5, 10]: 3910 CFU/107 Cells and <11 CFU/107 Cells and <23 CFU/107 Cells and 2 CFU/107 Cells and ≦2 CFU/107 Cells and <49 CFU/107 Cells | Bioburden TSA-SB Anaerobic [5, 10]: 3890 CFU/107 Cells and 343 CFU/107 Cells and <23 CFU/107 Cells and 294 CFU/107 Cells and ≦2 CFU/107 Cells and <49 CFU/107 Cells | Bioburden SAB-CM Aerobic ([5]; 0.8% Clorpactin, 2 min): 4452 CFU/107 Cells and ≦13 CFU/107 Cells | Bioburden TSA-SB Aerobic ([5]; 0.8% Clorpactin, 2 min): 7100 CFU/107 Cells and <13 CFU/107 Cells | Bioburden TSA-SB Anaerobic ([5]; 0.8% Clorpactin, 2 min): 8870 CFU/107 Cells and 1364 CFU/107 Cells | % Reduction of bioburden TSA-SB Anaerobic ([5]; 0.8% Clorpactin, 2 min, vs control of same tumor): (92%) | effect on bioburden (in words) ([5]; Clorpactin at 0.8% compared with 0.4%): no further reduction in bioburden was observed | effect of disinfectant on bioburden (in words) [5]: reduced the bioburden in the sample; also recorded: bioburden reductions to almost three orders of magnitude | Sterility FTG [8, 9]: F and P | Sterility TSB [8, 9]: F | Sterility FTG [8, 10]: F (3×) and P (3×) | Sterility TSB [8, 10]: F (4×) and P (2×) | Sterility FTG ([8]; 0.8% Clorpactin, 2 min): F | Sterility TSB ([8]; 0.8% Clorpactin, 2 min): F

Source: patent publication US7628996B2, “Sterile immunogenic non-tumorigenic tumor cell compositions and methods” (priority 2002, dated 2009)
